Key:
[1] = test system: Mycobacterium leprae, Mycobacterium avium complex (MAC), and M. tuberculosis; settings: against mycobacterium such as M. leprae; cited from earlier work
[2] = Sabnis et al., 2015; cited from earlier work
[3] = Geometric particle size distribution by HELOS laser diffraction with RODOS dispersion; format: physicochemical; settings: averaged n = 3
[4] = test system: J774.A1 macrophages; assay: Flow cytometric quantification of clofazimine uptake and biotransformation to liquid crystals; format: cell-based, murine
[5] = test system: J774.A1 cells

Row | SMILES | minimum inhibitory concentration (MIC) [1] | clofazimine solution in methanol that can be formed [2] | Span [3] | X10 ([3]; first column) | X10 ([3]; second column) | X10 ([3]; third column) | cells fluorescent at 660 nm emission (biotransformation to liquid crystals) ([4]; J774.A1, 24 hours exposure) | cells containing drug, fluorescence at 610 nm emission (crystalline clofazimine) ([4]; J774.A1, 24 hours exposure, 10,000 cells) | cell proliferation/viability compared to control [5]
1 | CC(C)N=c1cc2n(-c3ccc(Cl)cc3)c3ccccc3nc-2cc1Nc1ccc(Cl)cc1 [clofazimine, N,5-bis(4-chlorophenyl)-3-(1-methylethylimino)-5H-phenazin-2-amine] | 0.125 to 2 µg/mL | 0.1% | 2.62 | 1.55 μm | 7.90 μm | 21.96 μm | – | – | –
2 | CC(C)/N=c1\cc2n(-c3ccc(Cl)cc3)c3ccccc3nc-2cc1Nc1ccc(Cl)cc1 [solubilized clofazimine] | – | – | – | – | – | – | 0.21% | 2.48% | significant decrease

Reference: US20240099967A1, “INHALABLE COMPOSITION OF CLOFAZIMINE AND METHODS OF USE THEREOF” (priority 2017, published 2024)
